Reference: patent US10093630B2, “Pyrazole compounds and methods of making and using same” (ABIDE THERAPEUTICS, INC., priority 2014, dated 2018)

How the values were obtained:
Experiment in all cases: In vitro competitive activity-based protein profiling (gel-based, FP-Rh or HT-01 probe)
Assay type in all cases: biochemical
ABHD6 = target: T1, ABHD6 (Mus musculus, UniProt Q8R2Y0); conditions: for inhibition at 1 µM: 1 μM inhibitor, read-out: % Inhibition at 1 μM, C = ABHD6; for inhibition at 10 µM: 10 μM inhibitor, read-out: % Inhibition at 10 μM, C = ABHD6; for IC50: mouse brain membrane fraction or cell lysates, 30 min preincubation at 37° C., read-out: Mouse (IC50 value, nM) ABHD6
T1 construct: Proteomes (mouse brain membrane fraction or cell lysates); from tissue; host or cells: mouse brain membrane fraction (or cell lysates, not specified)
T1 sequence (Q8R2Y0 1-336): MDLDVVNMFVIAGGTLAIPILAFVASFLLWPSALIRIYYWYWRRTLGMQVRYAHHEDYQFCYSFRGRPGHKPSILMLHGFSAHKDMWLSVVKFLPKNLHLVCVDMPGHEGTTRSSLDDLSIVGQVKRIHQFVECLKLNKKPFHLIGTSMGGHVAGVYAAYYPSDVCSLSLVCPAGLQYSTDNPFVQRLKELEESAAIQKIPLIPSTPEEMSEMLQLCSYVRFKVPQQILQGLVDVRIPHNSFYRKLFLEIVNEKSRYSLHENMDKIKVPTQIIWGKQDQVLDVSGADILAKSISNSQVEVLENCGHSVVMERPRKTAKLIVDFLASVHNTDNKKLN
In short: (§1)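 Read-out: fluorescent band intensity on SDS-PAGE gels, reporting remaining serine hydrolase activity. Before that, proteome (mouse brain membranes or cell lysates, 1.0 mg/mL) saw a range of inhibitor concentrations for 30 min at 37° C, followed by 30 min probe labelling (FP-Rh or HT-01).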

FAAH = target: T2, FAAH (Mus musculus, UniProt O08914); conditions: for inhibition at 1 µM: 1 μM inhibitor, read-out: % Inhibition at 1 μM, B = FAAH; for inhibition at 10 µM: 10 μM inhibitor, read-out: % Inhibition at 10 μM, B = FAAH; for IC50: mouse brain membrane fraction or cell lysates, 30 min preincubation at 37° C., read-out: Mouse (IC50 value, nM) FAAH
T2 construct: Proteomes (mouse brain membrane fraction or cell lysates); from tissue; host or cells: mouse brain membrane fraction (or cell lysates, not specified)
T2 sequence (O08914 1-579): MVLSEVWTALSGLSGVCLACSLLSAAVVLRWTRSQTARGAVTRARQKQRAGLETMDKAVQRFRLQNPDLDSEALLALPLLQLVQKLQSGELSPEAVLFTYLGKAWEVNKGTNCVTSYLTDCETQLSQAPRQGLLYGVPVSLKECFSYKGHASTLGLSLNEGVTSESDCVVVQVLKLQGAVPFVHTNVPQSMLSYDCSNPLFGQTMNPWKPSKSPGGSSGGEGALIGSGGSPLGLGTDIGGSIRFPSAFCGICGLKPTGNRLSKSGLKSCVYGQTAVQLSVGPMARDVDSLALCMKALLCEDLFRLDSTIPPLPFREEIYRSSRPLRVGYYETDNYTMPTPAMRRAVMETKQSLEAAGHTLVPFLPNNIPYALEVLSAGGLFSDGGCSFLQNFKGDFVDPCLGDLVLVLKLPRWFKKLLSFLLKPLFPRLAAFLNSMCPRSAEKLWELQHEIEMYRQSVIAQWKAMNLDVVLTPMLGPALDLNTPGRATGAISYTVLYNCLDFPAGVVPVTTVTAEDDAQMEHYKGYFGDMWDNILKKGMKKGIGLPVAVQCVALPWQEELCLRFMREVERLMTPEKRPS
In short: as §1

MAGL = target: T3, MAGL (Mus musculus, UniProt O35678); conditions: for inhibition at 1 µM: 1 μM inhibitor; for inhibition at 10 µM: 10 μM inhibitor; for IC50: mouse brain membrane fraction or cell lysates, 30 min preincubation at 37° C., read-out: Mouse (IC50 value, nM) MAGL
T3 construct: Proteomes (mouse brain membrane fraction or cell lysates); from tissue; host or cells: mouse brain membrane fraction (or cell lysates, not specified)
T3 sequence (O35678 1-303): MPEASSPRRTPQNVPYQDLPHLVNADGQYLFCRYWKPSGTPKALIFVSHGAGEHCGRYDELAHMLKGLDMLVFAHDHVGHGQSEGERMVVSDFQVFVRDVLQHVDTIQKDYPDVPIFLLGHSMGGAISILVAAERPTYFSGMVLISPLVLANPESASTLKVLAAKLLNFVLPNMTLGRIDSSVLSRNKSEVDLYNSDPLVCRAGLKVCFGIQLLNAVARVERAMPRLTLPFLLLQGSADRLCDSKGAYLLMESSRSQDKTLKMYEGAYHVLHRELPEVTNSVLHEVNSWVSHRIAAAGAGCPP
In short: as §1

PLA2G7 = target: T4, PLA2G7 (Mus musculus, UniProt Q60963); conditions: for inhibition at 1 µM: 1 μM inhibitor, read-out: % Inhibition at 1 μM, D = PLA2G7; for inhibition at 10 µM: 10 μM inhibitor, read-out: % Inhibition at 10 μM, D = PLA2G7; for IC50: mouse brain membrane fraction or cell lysates, 30 min preincubation at 37° C.
T4 construct: Proteomes (mouse brain membrane fraction or cell lysates); from tissue; host or cells: mouse brain membrane fraction (or cell lysates, not specified)
T4 sequence (Q60963 22-440): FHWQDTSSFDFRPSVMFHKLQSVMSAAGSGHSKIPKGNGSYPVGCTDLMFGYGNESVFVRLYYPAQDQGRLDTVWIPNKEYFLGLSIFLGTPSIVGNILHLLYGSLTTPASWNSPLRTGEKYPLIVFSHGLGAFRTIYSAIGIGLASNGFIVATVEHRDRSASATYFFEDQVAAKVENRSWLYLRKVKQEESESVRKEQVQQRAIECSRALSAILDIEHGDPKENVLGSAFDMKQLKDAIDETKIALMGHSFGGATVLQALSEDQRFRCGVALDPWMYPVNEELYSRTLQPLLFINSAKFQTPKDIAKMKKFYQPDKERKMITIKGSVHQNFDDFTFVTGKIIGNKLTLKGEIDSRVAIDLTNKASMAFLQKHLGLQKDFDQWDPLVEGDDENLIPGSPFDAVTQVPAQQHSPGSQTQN
In short: as §1

SMILES | inhibition at 1 µM (ABHD6) [%] | inhibition at 10 µM (ABHD6) [%] | inhibition at 1 µM (FAAH) [%] | inhibition at 10 µM (FAAH) [%] | inhibition at 1 µM (MAGL) [%] | inhibition at 10 µM (MAGL) [%] | inhibition at 1 µM (PLA2G7) [%] | inhibition at 10 µM (PLA2G7) [%] | IC50 (ABHD6) [nM] | IC50 (FAAH) [nM] | IC50 (MAGL) [nM] | IC50 (PLA2G7) [nM]
CN(CCN(C)S(C)(=O)=O)C(=O)n1cc(C(F)(F)F)cn1 [Example 195, N-Methyl-N-(2-(N-methylmethylsulfonamido)ethyl)-4-(trifluoromethyl)-1H-pyrazole-1-carboxamide] | < 25 | > 75 | < 25 | > 75 | < 25 | < 25 | < 25 | 25 to 75 | – | – | – | –
CN(CCN(C)S(C)(=O)=O)C(=O)n1cc(C#N)cn1 [Example 197, 4-Cyano-N-methyl-N-(2-(N-methylmethylsulfonamido)ethyl)-1H-pyrazole-1-carboxamide] | < 25 | 25 to 75 | 25 to 75 | > 75 | < 25 | < 25 | < 25 | – | – | – | – | –
CN(CCN(C)S(C)(=O)=O)C(=O)n1cc(Cl)cn1 [Example 198, 4-Chloro-N-methyl-N-(2-(N-methylmethylsulfonamido)ethyl)-1H-pyrazole-1-carboxamide] | – | < 25 | – | < 25 | – | < 25 | – | < 25 | – | – | – | –
O=C(N1CCCC1)n1cc(C(F)(F)F)cn1 [Example 199, Pyrrolidin-1-yl(4-(trifluoromethyl)-1H-pyrazol-1-yl)methanone] | 25 to 75 | > 75 | > 75 | > 75 | < 25 | > 75 | 25 to 75 | > 75 | – | – | – | –
O=C(N1CCCCC1)n1cc(C(F)(F)F)cn1 [Example 200, Piperidin-1-yl(4-(trifluoromethyl)-1H-pyrazol-1-yl)methanone] | > 75 | > 75 | > 75 | > 75 | > 75 | > 75 | > 75 | > 75 | 100 to 1000 | 100 to 1000 | > 1000 | 100 to 1000
O=C(N1CCOCC1)n1cc(C(F)(F)F)cn1 [Example 201, Morpholino(4-(trifluoromethyl)-1H-pyrazol-1-yl)methanone] | > 75 | > 75 | > 75 | > 75 | < 25 | 25 to 75 | > 75 | > 75 | – | – | – | –
O=C(N1CCN(c2ccccc2)CC1)n1cc(C(F)(F)F)cn1 [Example 202, (4-Phenylpiperazin-1-yl)(4-(trifluoromethyl)-1H-pyrazol-1-yl)methanone] | > 75 | > 75 | > 75 | > 75 | > 75 | > 75 | > 75 | > 75 | – | – | – | –
N#Cc1cnn(C(=O)N2CCCC2)c1 [Example 203, 1-(Pyrrolidine-1-carbonyl)-1H-pyrazole-4-carbonitrile] | < 25 | > 75 | > 75 | > 75 | < 25 | > 75 | < 25 | > 75 | – | – | – | –
NC(=O)c1cnn(C(=O)N2CCN(Cc3ccc(Cl)cc3)CC2)c1 [Example 204, 1-(4-(4-chlorobenzyl)piperazine-1-carbonyl)-1H-pyrazole-4-carboxamide] | > 75 | – | > 75 | – | > 75 | – | < 25 | – | < 100 | 100 to 1000 | < 100 | > 1000
N#Cc1cnn(C(=O)N2CCOCC2)c1 [Example 205, 1-(Morpholine-4-carbonyl)-1H-pyrazole-4-carbonitrile] | 25 to 75 | > 75 | > 75 | > 75 | < 25 | 25 to 75 | > 75 | > 75 | – | – | – | –
N#Cc1cnn(C(=O)N2CCN(c3ccccc3)CC2)c1 [Example 206, 1-(4-Phenylpiperazine-1-carbonyl)-1H-pyrazole-4-carbonitrile] | > 75 | > 75 | > 75 | > 75 | > 75 | > 75 | > 75 | > 75 | – | – | – | –
Cc1cc(N2CCN(C(=O)n3cc(-c4ccccc4)cn3)CC2)c2ccccc2n1 [Example 207, (4-(2-Methylquinolin-4-yl)piperazin-1-yl)(4-phenyl-1H-pyrazol-1-yl)methanone] | > 75 | > 75 | > 75 | > 75 | 25 to 75 | > 75 | 25 to 75 | > 75 | – | – | – | –
Cc1cc(N2CCN(C(=O)n3cc(Cl)cn3)CC2)c2ccccc2n1 [Example 208, (4-Chloro-1H-pyrazol-1-yl)(4-(2-methylquinolin-4-yl)piperazin-1-yl)methanone] | > 75 | > 75 | > 75 | > 75 | > 75 | > 75 | > 75 | > 75 | – | – | – | –
Cc1cc(N2CCN(C(=O)n3cc(C#N)cn3)CC2)c2ccccc2n1 [Example 209, 1-(4-(2-Methylquinolin-4-yl)piperazine-1-carbonyl)-1H-pyrazole-4-carbonitrile] | > 75 | > 75 | > 75 | > 75 | > 75 | > 75 | > 75 | > 75 | – | – | – | –
Cc1cc(N2CCN(C(=O)n3cc(C(F)(F)F)cn3)CC2)c2ccccc2n1 [Example 210, (4-(2-Methylquinolin-4-yl)piperazin-1-yl)(4-(trifluoromethyl)-1H-pyrazol-1-yl)methanone] | > 75 | > 75 | > 75 | > 75 | > 75 | > 75 | 25 to 75 | > 75 | 100 to 1000 | > 1000 | < 100 | < 100
